GI50 and TGI data for nine compounds are collected here from PubChem BioAssay (NCI).

Among the test systems are SK-MEL-28 melanoma; HCT-116 colon; M14 melanoma; UACC-257 melanoma; SN12C renal; NCI-H226 lung; OVCAR-3 ovarian; SNB-75 CNS; HT29 colon; HS 578T breast.
Test in all cases: NCI tumour cell line growth inhibition, 48 h

Structures are written as SMILES.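 Cultured in 96-well plates, cells were exposed to test compound for 48 hours across five concentrations. At the GI50, growth is halved. TGI is the concentration that stops growth completely.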

`O=C1Nc2c(ccc(Cl)c2Cl)/C1=C/c1cc(Br)c(O)c(Br)c1`: the GI50 in the experiment on SK-MEL-28 melanoma was 7.07 µM; in the experiment with HCT-116 colon, 4.45 µM; in the experiment with M14 melanoma, 3.14 µM; in the experiment on UACC-257 melanoma, 6.19 µM; in the experiment with SN12C renal, 10.7 µM; with NCI-H226 lung it was 11.5 µM. In addition, the GI50 with OVCAR-3 ovarian is 3.14 µM; with SNB-75 CNS it was 9 µM; in the experiment with HT29 colon it was 4.05 µM; in the experiment with HS 578T breast it was 4.32 µM. Besides, the TGI in the experiment on SK-MEL-28 melanoma was greater than 100 µM; in the experiment with HCT-116 colon it was greater than 44.9 µM; in the experiment with M14 melanoma, greater than 100 µM; in the experiment with UACC-257 melanoma, 26.6 µM; in the experiment with SN12C renal, greater than 100 µM; in the experiment with NCI-H226 lung it was 60.4 µM. Besides, the TGI with OVCAR-3 ovarian turned out to be 12 µM; in the experiment with SNB-75 CNS, 83.2 µM; with HT29 colon it was 23.7 µM; with HS 578T breast, 46.4 µM.
With `O=c1c2ccccc2sc2c(NCCCNCCO)nc3ccccc3c12`, the GI50 was 1.81 µM in the experiment on SK-MEL-28 melanoma; 1.3 µM in the experiment with HCT-116 colon; 1.71 µM in the experiment on M14 melanoma; 1.93 µM in the experiment on UACC-257 melanoma; 1.47 µM with SN12C renal; 1.41 µM in the experiment with NCI-H226 lung. Further, the GI50 is 1.81 µM in the experiment on OVCAR-3 ovarian, 1.64 µM in the experiment with SNB-75 CNS, 1.51 µM with HT29 colon and 1.67 µM in the experiment on HS 578T breast. In addition, the TGI was determined as 3.52 µM with SK-MEL-28 melanoma; 2.6 µM in the experiment with HCT-116 colon; 3.33 µM in the experiment on M14 melanoma; 3.6 µM in the experiment with UACC-257 melanoma; 3.24 µM with SN12C renal; 2.95 µM in the experiment on NCI-H226 lung. Further, the TGI in the experiment with OVCAR-3 ovarian is 3.65 µM; with SNB-75 CNS, 4.32 µM; with HT29 colon, 2.97 µM; in the experiment with HS 578T breast, 5.65 µM.
With `O=C1NC(=C(Cl)Cl)/C(=N/S(=O)(=O)N2CCCCC2)N1`, the GI50 in the experiment with SK-MEL-28 melanoma was 1.92 µM; in the experiment on HCT-116 colon, 1.85 µM; with M14 melanoma, 2.06 µM; in the experiment on UACC-257 melanoma it was 2.43 µM; in the experiment with SN12C renal, 1.7 µM; in the experiment with NCI-H226 lung it was 3.37 µM. In addition, the GI50 in the experiment on OVCAR-3 ovarian is 2.09 µM; in the experiment on SNB-75 CNS, 1.76 µM; in the experiment on HT29 colon, 1.99 µM; in the experiment on HS 578T breast, 3.18 µM. Moreover, the TGI in the experiment on SK-MEL-28 melanoma came out at 3.56 µM; in the experiment on HCT-116 colon, 3.39 µM; with M14 melanoma, 4.54 µM; in the experiment with UACC-257 melanoma, 7.07 µM; with SN12C renal it was 3.14 µM; in the experiment with NCI-H226 lung it was 14.9 µM. Further, the TGI in the experiment with OVCAR-3 ovarian was 3.78 µM; in the experiment on SNB-75 CNS it was 3.77 µM; in the experiment with HT29 colon it was 3.98 µM; in the experiment on HS 578T breast, 10.7 µM.
In the case of `OCC1C(OCc2ccccc2)C(OCc2ccccc2)C(OCc2ccccc2)CN1Cc1ccccc1` (stereo not given), the TGI is greater than 100 µM in the experiment with SK-MEL-28 melanoma; 81.5 µM with HCT-116 colon; greater than 100 µM in the experiment with M14 melanoma; 81 µM in the experiment on UACC-257 melanoma; 39.6 µM in the experiment with SN12C renal; greater than 100 µM in the experiment with NCI-H226 lung. In addition, the TGI is greater than 100 µM in the experiment on OVCAR-3 ovarian, 31.2 µM with SNB-75 CNS, 34.6 µM with HT29 colon and greater than 100 µM in the experiment on HS 578T breast.
With `Cc1c(-c2cnccn2)ssc1=S`, the TGI with SK-MEL-28 melanoma is greater than 100 µM; in the experiment with HCT-116 colon, greater than 100 µM; in the experiment on M14 melanoma it was greater than 100 µM; in the experiment on UACC-257 melanoma, 38.1 µM; with SN12C renal, greater than 100 µM; in the experiment on NCI-H226 lung, greater than 100 µM. Further, the TGI was greater than 100 µM in the experiment with OVCAR-3 ovarian, 59.8 µM in the experiment on SNB-75 CNS, greater than 100 µM in the experiment with HT29 colon and 91.8 µM with HS 578T breast.
With `O=C(CSc1nc2c(n1Nc1ccccc1)-c1ccccc1SC2)Nc1nc(-c2ccc(Cl)cc2)cs1`, the GI50 is greater than 100 µM in the experiment on SK-MEL-28 melanoma; 6.37 µM in the experiment on HCT-116 colon; greater than 100 µM with M14 melanoma; greater than 100 µM with UACC-257 melanoma; greater than 100 µM in the experiment on SN12C renal; 29.9 µM in the experiment on NCI-H226 lung. Moreover, the GI50 with OVCAR-3 ovarian is 7.34 µM; in the experiment on SNB-75 CNS, 9.23 µM; with HT29 colon it was greater than 100 µM; with HS 578T breast, 6.35 µM. In addition, the TGI in the experiment on SK-MEL-28 melanoma, in the experiment with HCT-116 colon, in the experiment on M14 melanoma, in the experiment on UACC-257 melanoma, with SN12C renal and with NCI-H226 lung was greater than 100 µM each time. In addition, the TGI in the experiment with OVCAR-3 ovarian was greater than 100 µM; with SNB-75 CNS, 23.8 µM; with HT29 colon it was greater than 100 µM; in the experiment on HS 578T breast, 78.7 µM.
On to `O=C(O)c1cc(-c2ccc3cc4c(cc3c2)OCO4)nc2ccccc12`, for which the TGI is greater than 100 µM in the experiment with SK-MEL-28 melanoma; greater than 100 µM in the experiment on HCT-116 colon; greater than 100 µM in the experiment on M14 melanoma; 35.4 µM with UACC-257 melanoma; greater than 100 µM in the experiment on SN12C renal; greater than 100 µM with NCI-H226 lung. Moreover, the TGI with OVCAR-3 ovarian, in the experiment with SNB-75 CNS, with HT29 colon and with HS 578T breast was greater than 100 µM each time.
Consider `COc1c/c(=C2\C=c3ccccc3=N2)[nH]/c1=C\c1[nH]c(C)cc1C`, for which the GI50 in the experiment on SK-MEL-28 melanoma is 0.103 µM; in the experiment with HCT-116 colon, less than 0.0368 µM; with M14 melanoma, 0.64 µM; with UACC-257 melanoma it was 0.628 µM; with SN12C renal, 0.0782 µM; in the experiment on NCI-H226 lung it was 16.5 µM. The GI50 is less than 0.0109 µM in the experiment on OVCAR-3 ovarian, 0.175 µM in the experiment with SNB-75 CNS, less than 0.01 µM in the experiment with HT29 colon and 0.0131 µM in the experiment on HS 578T breast. Besides, the TGI was 26.3 µM in the experiment on SK-MEL-28 melanoma; 1.71 µM in the experiment with HCT-116 colon; greater than 31.9 µM in the experiment on M14 melanoma; 32.7 µM with UACC-257 melanoma; 59.5 µM with SN12C renal; greater than 100 µM with NCI-H226 lung. In addition, the TGI with OVCAR-3 ovarian is 0.202 µM; in the experiment on SNB-75 CNS, 4.19 µM; with HT29 colon, greater than 100 µM; with HS 578T breast, 0.433 µM.
Regarding `Cc1nc([N+](=O)[O-])cn1-c1nc2ccccn2c1[N+](=O)[O-]`, the TGI in the experiment with SK-MEL-28 melanoma, with HCT-116 colon, in the experiment with M14 melanoma, in the experiment on UACC-257 melanoma, in the experiment with SN12C renal and in the experiment with NCI-H226 lung was greater than 100 µM each time. The TGI in the experiment with OVCAR-3 ovarian is greater than 100 µM; in the experiment on SNB-75 CNS, 63.7 µM; in the experiment with HT29 colon, greater than 100 µM; in the experiment on HS 578T breast, greater than 100 µM.
